Source: patent US9585892B2, “Solid forms comprising N-(5-tert-butyl-isoxazol-3-yl)-N′-{4-[7-(2-morpholin-4-yl-ethoxy)imidazo[2,1-b][1,3]benzothiazol-2-yl]phenyl}urea, compositions thereof, and uses therewith” (AMBIT BIOSCIENCES CORPORATION, priority 2007, dated 2017)
Structures can show the parent of a compound that is named as a salt. Where two headings read alike, the source gives them in different places. Blank lines part the entries; values can stand above or below the compound they belong to.

Assays:
Type in all cases: physicochemical
[1] = Solubility measurements (solvent aliquot addition, visual inspection)
Protocol: A weighed sample was treated with aliquots of the test solvent at room temperature or elevated temperature. Complete dissolution of the test material was determined by visual inspection. Solubility was estimated based on the total solvent used to provide complete dissolution. The actual solubility may be greater than the value calculated because of the use of solvent aliquots that were too large or due to a slow rate of dissolution. […] If complete dissolution was achieved as a result of only one aliquot addition, the solubility is expressed as “greater than.”

[2] = Stress experiments (temperature or relative humidity, XRPD after stress)
Protocol: Stress Experiments. Solids were stressed under different temperature or relative humidity (RH) environments for a measured time period. Specific RH values were achieved by placing the sample inside sealed chambers containing saturated salt solutions. The salt solutions were selected and prepared following an ASTM standard procedure. Samples were analyzed by XRPD immediately after removal from the stress environment.
(§1) X-ray powder diffraction analyses were performed on an Inel XRG-3000 diffractometer, equipped with a curved position-sensitive detector with a […] of 120°. Real time data was collected using Cu Kα radiation starting at approximately 4 ° 2θ at a resolution of 0.03 ° 2θ. The tube voltage and amperage were set to 40 kV and 30 mA, respectively. […] Samples were prepared for analysis by packing them into thin-walled glass capillaries. Each capillary was mounted onto a goniometer head that is motorized to permit spinning of the capillary during data acquisition. Instrument calibration was performed daily using a silicon reference standard.

[3] = Dynamic vapor sorption/desorption (moisture balance); settings: for post-moisture balance XRPD (resulting material): after sorption/desorption cycle 5-95-5% RH; for weight loss upon initial equilibration: equilibrium at 5% RH; for weight gain on sorption / water corresponding to the weight gain on sorption: from 5 to 95% RH; for weight loss on desorption: from 95 to 5% RH
Protocol: Data were collected on a VTI SGA-100 moisture balance system. For sorption isotherms, a sorption range of about 5 to about 95% relative humidity (RH) and a desorption range of about 95 to about 5% RH in 10% RH increments were used for analysis. The samples were not dried prior to analysis. Equilibrium criteria used for analysis were less than 0.0100% weight change in 5 minutes with a maximum equilibration time of 3 hours if the weight criterion was not met. Data were not corrected for the initial moisture content of the samples.

[4] = Mechanical stress studies (compression, grinding, milling; XRPD after stress)
Protocol: Grinding. […] […] The solids were isolated and analyzed.
as §1

[5] = Oven: 40° C., 4 days, listed as A
[6] = 75% RH, ambient temperature, 2 and 4 days

solubility ([1]; 1,4-dioxane, organic solvent or mixture, thermodynamic from solid, 1,4-Dioxane, Ambient, read-out: Approximate Solubility): < 2000 µg/mL | solubility ([1]; 2-butanone, organic solvent or mixture, thermodynamic from solid, 2-Butanone, Ambient, read-out: Approximate Solubility): < 2000 µg/mL | solubility ([1]; acetone, organic solvent or mixture, thermodynamic from solid, Acetone, Ambient, read-out: Approximate Solubility): < 2000 µg/mL | solubility ([1]; acetonitrile, organic solvent or mixture, thermodynamic from solid, Acetonitrile (ACN), Ambient, read-out: Approximate Solubility): < 2000 µg/mL | solubility ([1]; acetonitrile/water (1:1), 60 °C, aqueous with cosolvent or surfactant or cyclodextrin, thermodynamic from solid, ACN/water (1:1), 60° C., read-out: Approximate Solubility): ≥ 110000 µg/mL | solubility ([1]; dichloromethane, organic solvent or mixture, thermodynamic from solid, Dichloromethane (DCM), Ambient, read-out: Approximate Solubility): < 2000 µg/mL | solubility ([1]; ethanol, organic solvent or mixture, thermodynamic from solid, Ethanol (EtOH), Ambient, read-out: Approximate Solubility): 1000 µg/mL | solubility ([1]; ethanol/water (4:1), 60 °C, organic solvent or mixture, thermodynamic from solid, Ethanol/water (4:1), 60° C., read-out: Approximate Solubility): ≥ 39000 µg/mL | solubility ([1]; ethanol/water (24:1), 60 °C, organic solvent or mixture, thermodynamic from solid, Ethanol/water (24:1), 60° C., read-out: Approximate Solubility): < 2000 µg/mL | solubility ([1]; ethyl acetate, organic solvent or mixture, thermodynamic from solid, Ethyl Acetate (EtOAc), Ambient, read-out: Approximate Solubility): < 2000 µg/mL | solubility ([1]; isopropanol, organic solvent or mixture, thermodynamic from solid, Isopropanol (IPA), Ambient, read-out: Approximate Solubility): < 2000 µg/mL | solubility ([1]; isopropanol/water (24:1), 60 °C, organic solvent or mixture, thermodynamic from solid, Isopropanol/water (24:1), 60° C., read-out: Approximate Solubility): < 2000 µg/mL | solubility ([1]; methanol, organic solvent or mixture, thermodynamic from solid, Methanol (MeOH), Ambient, read-out: Approximate Solubility): 3000 µg/mL | solubility ([1]; nitromethane, organic solvent or mixture, thermodynamic from solid, Nitromethane, Ambient, read-out: Approximate Solubility): < 2000 µg/mL | solubility ([1]; tetrahydrofuran, organic solvent or mixture, thermodynamic from solid, Tetrahydrofuran (THF), Ambient, read-out: Approximate Solubility): < 2000 µg/mL | solubility ([1]; trifluoroethanol, organic solvent or mixture, thermodynamic from solid, Trifluoroethanol (TFE), Ambient, read-out: Approximate Solubility): > 72000 µg/mL | solubility ([1]; trifluorotoluene, organic solvent or mixture, thermodynamic from solid, Trifluorotoluene (TFT), Ambient, read-out: Approximate Solubility): < 2000 µg/mL | solubility ([1]; water, thermodynamic from solid, Water, Ambient, certain samples formed a gel upon addition of water, actual solubility may differ substantially, read-out: Approximate Solubility): 36000 µg/mL | weight gain ([2]; 75% RH, 1 day): 1 day: 4.2% weight gain | weight gain ([2]; 75% RH, 2 days): 2 days: 3.8% weight gain | XRPD Result after stress ([2]; 75% RH, ambient temperature, 4 days): Form D | XRPD Result after stress ([2]; Oven: 40° C., 4 days): mixture of Form A and Form E | XRPD Result after stress [2, 5]: A + E | weight loss [2, 5]: 4 days: 3.0% weight loss | post-moisture balance XRPD (resulting material) [3]: Form D | post-moisture balance XRPD (resulting material) ([3]; listed as A): FORM D | weight loss upon initial equilibration [3]: about 3.9% | weight loss upon initial equilibration ([3]; listed as A): ~3.9% WEIGHT LOSS UPON EQUILIBRIUM | weight gain on sorption [3]: about 16.7% | water corresponding to the weight gain on sorption ([3]; listed as A): CORRESPONDING TO 6.5 MOLES OF WATER. | weight gain on sorption ([3]; listed as A): ~16.7% WEIGHT GAIN FROM 5 TO 95% RH, | weight loss on desorption [3]: about 16.7% | weight loss on desorption ([3]; listed as A): ~16.6% WEIGHT LOSS FROM 95 TO 5% RH.
Compound: CC(C)(C)c1cc(NC(=O)Nc2ccc(-c3cn4c(n3)sc3cc(OCCN5CCOCC5)ccc34)cc2)no1 [Form A of the HCl salt of Compound B1, N-(5-tert-butyl-isoxazol-3-yl)-N′-{4-[7-(2-morpholin-4-yl-ethoxy)imidazo[2,1-b][1,3]benzothiazol-2-yl]phenyl}urea]

APPROXIMATE SOLUBILITY ([1]; 2,2,2-TRIFLUOROETHANOL, 67 ° C.): 53 mg/mL | APPROXIMATE SOLUBILITY ([1]; 2,2,2-TRIFLUOROETHANOL, AMBIENT): 52 mg/mL | APPROXIMATE SOLUBILITY ([1]; 2-BUTANONE (MEK), 62 ° C.): <1 mg/mL | APPROXIMATE SOLUBILITY ([1]; 2-BUTANONE (MEK), AMBIENT): <1 mg/mL | APPROXIMATE SOLUBILITY ([1]; ACETONE, 54 ° C.): <1 mg/mL | APPROXIMATE SOLUBILITY ([1]; ACETONE, AMBIENT): <1 mg/mL | APPROXIMATE SOLUBILITY ([1]; ACETONE:WATER 50:50, AMBIENT): 13 mg/mL | APPROXIMATE SOLUBILITY ([1]; ACETONITRILE, 60 ° C.): <1 mg/mL | APPROXIMATE SOLUBILITY ([1]; ACETONITRILE, AMBIENT): <1 mg/mL | APPROXIMATE SOLUBILITY ([1]; ACETONITRILE:WATER 50:50, AMBIENT): 51 mg/mL | APPROXIMATE SOLUBILITY ([1]; DICHLOROMETHANE, AMBIENT): <1 mg/mL | APPROXIMATE SOLUBILITY ([1]; DIOXANE:WATER 50:50, 62 ° C.): 23 mg/mL | APPROXIMATE SOLUBILITY ([1]; ETHANOL, 60 ° C.): <2 mg/mL | APPROXIMATE SOLUBILITY ([1]; ETHANOL, AMBIENT): <1 mg/mL | APPROXIMATE SOLUBILITY ([1]; ETHANOL:WATER 50:50, AMBIENT): 13 mg/mL | APPROXIMATE SOLUBILITY ([1]; ETHYL ACETATE, AMBIENT): <1 mg/mL | APPROXIMATE SOLUBILITY ([1]; ISOPROPANOL, 63 ° C.): <1 mg/mL | APPROXIMATE SOLUBILITY ([1]; ISOPROPANOL, AMBIENT): <1 mg/mL | APPROXIMATE SOLUBILITY ([1]; ISOPROPANOL:WATER 20:80, 62 ° C.): 54 mg/mL | APPROXIMATE SOLUBILITY ([1]; ISOPROPANOL:WATER 20:80, AMBIENT): 5 mg/mL | APPROXIMATE SOLUBILITY ([1]; METHANOL, 62 ° C.): 2 mg/mL | APPROXIMATE SOLUBILITY ([1]; METHANOL, AMBIENT): 1 mg/mL | APPROXIMATE SOLUBILITY ([1]; NITROMETHANE, 64 ° C.): <1 mg/mL | APPROXIMATE SOLUBILITY ([1]; NITROMETHANE, AMBIENT): <1 mg/mL | APPROXIMATE SOLUBILITY ([1]; P-DIOXANE, 63 ° C.): <1 mg/mL | APPROXIMATE SOLUBILITY ([1]; P-DIOXANE, AMBIENT): <1 mg/mL | APPROXIMATE SOLUBILITY ([1]; P-DIOXANE:WATER 50:50, AMBIENT): 6 mg/mL | APPROXIMATE SOLUBILITY ([1]; TETRAHYDROFURAN, 64 ° C.): <1 mg/mL | APPROXIMATE SOLUBILITY ([1]; TETRAHYDROFURAN, AMBIENT): <1 mg/mL | APPROXIMATE SOLUBILITY ([1]; TETRAHYDROFURAN:WATER 50:50, AMBIENT): 24 mg/mL | APPROXIMATE SOLUBILITY ([1]; TRIFLUOROTOLUENE, AMBIENT): <1 mg/mL | solubility ([1]; water, 68 °C, water, thermodynamic from solid, WATER, 68 ° C., read-out: APPROXIMATE SOLUBILITY): < 3000 µg/mL | solubility ([1]; water, thermodynamic from solid, WATER, AMBIENT, read-out: APPROXIMATE SOLUBILITY): ≥ 1000 µg/mL | XRPD Result after stress [2, 6]: Form B | weight change [2, 6]: no substantial weight change | weight change ([2]; 75% RH, ambient temperature, 2 and 4 days, listed as B): 2 and 4 days: no weight | post-moisture balance XRPD (resulting material) [3]: Form B | post-moisture balance XRPD (resulting material) ([3]; listed as B): FORM B | weight loss upon initial equilibration [3]: about 0.6% | water corresponding to the mass gain on sorption ([3]; from 5% to 95% RH): about 1.2 molar equivalents of water | weight gain on sorption [3]: about 3.6% | water corresponding to the weight gain on sorption ([3]; listed as B): ~1.2 MOLES OF WATER FROM ~5 TO ~95% | weight gain on sorption ([3]; listed as B): ~3.6% WEIGHT GAIN, CORRESPONDING TO | weight loss on desorption [3]: about 3.6% | weight loss on desorption ([3]; listed as B): RH, ~3.2% WEIGHT LOSS FROM ~95 TO ~5% | XRPD RESULT after mechanical stress ([4]; GRIND WITH MORTAR AND PESTLE, WATER, 1 MIN): B + SMALL PEAK | XRPD RESULT after mechanical stress ([4]; MILLING, 2,2,2-TRIFLUOROETHANOL, 10 MIN): B + LARGE PEAK
Compound: CC(C)(C)c1cc(NC(=O)Nc2ccc(-c3cn4c(n3)sc3cc(OCCN5CCOCC5)ccc34)cc2)no1 [Form B of the HCl salt of Compound B1, N-(5-tert-butyl-isoxazol-3-yl)-N′-{4-[7-(2-morpholin-4-yl-ethoxy)imidazo[2,1-b][1,3]benzothiazol-2-yl]phenyl}urea]
